Experimental data as given in publication PMC5958064, “Single cell analysis of kynurenine and System L amino acid transport in T cells” (Nature Communications, 2018).
Where two headings read alike, the source gives them in different places.

Key:
[1] = system: AHR; assay: Cyp1a1 mRNA induction in TH17cond CD4+ T cells (qPCR); assay type: cell-based, mouse
Description: To activate primary T cells, spleens and/or lymph nodes (LN) were removed, disaggregated and red blood cells lysed. Cells were stimulated with 1 μg/ml of the CD3 monoclonal antibody (2C11) and 2 μg/ml anti-CD28 (37.51; ebiosciences) to trigger the TCR. Naive CD4^+ T cells and 24 h TCR-activated CD4^+ T cells were purified using CD4 isolation kit (EasySep, STEMCELL Technologies). […] Proleukin, Novartis) for a further 3–5 days. To generate TH1s and TH17s, murine CD8^+ T cells were depleted from lymph node preparations using CD8 depletion kit (EasySep, STEMCELL Technologies). […] RnD Systems) and IL-2 (20 ng/ml) and for TH17s; cytokines IL-6 (50 ng/ml, Peprotech), IL-1β (10 ng/ml, Peprotech) and TGFβ (2 ng/ml, Peprotech). TH17s were cultured in IMDM (Gibco). All other cells were cultured in RPMI 1640 containing L-glutamine (Gibco). Culture media was supplemented with 10% FBS (Gibco), 50 μM β-mercaptoethanol (β-ME, Sigma) and penicillin/streptomycin (Gibco). Cells were incubated at 37 °C with 5% CO2 throughout. […] RNA was purified using the RNeasy RNA purification Mini Kit (Qiagen) (Genomic DNA was digested with RNase-free DNase (Qiagen) following manufacturer instructions) and reverse-transcribed using the iScript cDNA synthesis kit (BioRad). Quantitative PCR was performed in 96-well plate format using iQ SYBR Green-based detection (BioRad) on a BioRad iCycler.

[2] = biological target: T1, System L transporter SLC7A5 (Mus musculus, UniProt Q9Z127); assay: Flow cytometry kynurenine uptake assay (450 nm fluorescence) in T cells; assay type: cell-based; settings: for IC50: 37 °C
T1 construct: endogenous in cells
Excerpt: For cell surface staining, antibodies conjugated to FITC, PE, APC, Alexafluor 647 (A647), APC-efluor780 (APCe780), and PerCPCy5.5 were obtained from either BD Pharmingen, eBioscience or Biolegend. Fc receptors were blocked using Fc Block (BD Pharmingen). Antibody clones used were: CD4 (RM4-5), CD8a (53-6.7), TCRβ (H57-597), CD44 (IM7), CD45.1 (A20), CD45.2 (104) and CD98 (RC388). Cells were fixed using 1% paraformaldehyde. Standard intracellular cytokine staining protocols were followed for IFNγ (clone XMG1.2; Biolegend) staining. Data were acquired on a LSR Fortessa II with DIVA software or a FACSVerse flow cytometer with FACSuite software (BD Biosciences) and analysed using FlowJo software version 9.9.5 (TreeStar).
Start with at least 1 × 10^6 cells per condition, to obtain at least 200,000 events analysed by flow cytometry at the end of the protocol. […] If required, surface cell antibody staining should be performed prior to uptake assay protocol. This may be performed at room temperature or 4 °C, however test samples must be warmed to 37 °C, e.g. in water bath, prior to kynurenine uptake. (As with all multi-parameter flow cytometry, appropriate antibody staining controls must also be performed.) Samples can be fixed immediately after uptake assay by addition of 4% (vol/vol) paraformaldehyde (PFA; to a final concentration of 1%) for 30 min at room temperature.
For kynurenine uptake assay; pre-warm kynurenine (800 μM, in HBSS), BCH (40 mM, in HBSS) and lysine (20 mM, HBSS) and HBSS to 37 °C. After surface antibody staining of samples, resuspend cells in 200 μl warmed HBSS (1–5 × 10^6 cells in FACS tubes, or scale accordingly into plates). Keep cells in water bath at 37 °C. Add 100 μl of HBSS, or BCH or lysine to appropriate samples. Add 100 μl HBSS to no kynurenine controls (final volume 400 μl). Finally, add 100 μl kynurenine to appropriate samples. Stop uptake after 4 min by adding 125 μl 4% PFA for 30 min at room temperature, in the dark. The final concentrations for uptake assay are: 200 μM kynurenine; +/-10 mM BCH; +/-5 mM lysine. After fixation, wash cells twice in PBS/0.5% BSA and resuspend in PBS/0.5% BSA prior to acquisition on flow cytometer. The 405 nm laser and 450/50 BP filter are used for kynurenine fluorescence detection.
To monitor kynurenine uptake in live cells, acquire data on flow cytometer immediately following addition of kynurenine and plot fluorescence against time.

[3] = biological target: T1, System L transporter SLC7A5; assay: Radiolabelled 3H-kynurenine uptake in T cells; assay type: cell-based
Description: To activate primary T cells, spleens and/or lymph nodes (LN) were removed, disaggregated and red blood cells lysed. Cells were stimulated with 1 μg/ml of the CD3 monoclonal antibody (2C11) and 2 μg/ml anti-CD28 (37.51; ebiosciences) to trigger the TCR. Naive CD4^+ T cells and 24 h TCR-activated CD4^+ T cells were purified using CD4 isolation kit (EasySep, STEMCELL Technologies). […] Proleukin, Novartis) for a further 3-5 days. To generate TH1s and TH17s, murine CD8^+ T cells were depleted from lymph node preparations using CD8 depletion kit (EasySep, STEMCELL Technologies). […] RnD Systems) and IL-2 (20 ng/ml) and for TH17s; cytokines IL-6 (50 ng/ml, Peprotech), IL-1β (10 ng/ml, Peprotech) and TGFβ (2 ng/ml, Peprotech). TH17s were cultured in IMDM (Gibco). All other cells were cultured in RPMI 1640 containing L-glutamine (Gibco). Culture media was supplemented with 10% FBS (Gibco), 50 μM β-mercaptoethanol (β-ME, Sigma) and penicillin/streptomycin (Gibco). Cells were incubated at 37 °C with 5% CO2 throughout. […] Cells were pelleted below the oil, the aqueous supernatant solution, followed by the silicon oil/dibutyl phthalate mixture was aspirated, and the cell pellet underneath resuspended in 200 μl NaOH (0.5 M) and β-radioactivity measured by liquid scintillation counting in a Beckman LS 6500 Multi-Purpose Scintillation Counter (Beckman Coulter). […] Where indicated, the sodium free buffer was prepared using TMACl as described in Baird et al.[35] Data are expressed as molecules radiotracer per cell per minute. […] All other chemicals were obtained from Sigma.

[4] = system: AHR; design: method as in PMID 29279331; settings: COS-1 cells; read-out: EC50 for AHR activation; cited from earlier work
[5] = summary over CTL, TH1 and 24 h TCR-stimulated T cells

T1 sequence (Q9Z127 whole entry): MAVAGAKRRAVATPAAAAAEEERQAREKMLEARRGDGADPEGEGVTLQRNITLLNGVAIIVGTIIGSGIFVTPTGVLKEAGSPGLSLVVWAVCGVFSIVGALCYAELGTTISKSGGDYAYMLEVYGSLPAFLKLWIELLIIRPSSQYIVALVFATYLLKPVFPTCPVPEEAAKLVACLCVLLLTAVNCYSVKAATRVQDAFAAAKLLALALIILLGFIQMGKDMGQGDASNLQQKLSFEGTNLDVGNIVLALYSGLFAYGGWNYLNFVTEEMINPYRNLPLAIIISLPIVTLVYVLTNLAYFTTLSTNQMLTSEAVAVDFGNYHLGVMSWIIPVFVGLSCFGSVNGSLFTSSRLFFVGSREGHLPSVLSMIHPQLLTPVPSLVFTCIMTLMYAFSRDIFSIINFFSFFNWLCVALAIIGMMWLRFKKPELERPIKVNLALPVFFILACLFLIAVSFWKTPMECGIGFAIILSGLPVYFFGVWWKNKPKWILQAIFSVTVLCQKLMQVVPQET
T1 sequence (P10852 whole entry partner): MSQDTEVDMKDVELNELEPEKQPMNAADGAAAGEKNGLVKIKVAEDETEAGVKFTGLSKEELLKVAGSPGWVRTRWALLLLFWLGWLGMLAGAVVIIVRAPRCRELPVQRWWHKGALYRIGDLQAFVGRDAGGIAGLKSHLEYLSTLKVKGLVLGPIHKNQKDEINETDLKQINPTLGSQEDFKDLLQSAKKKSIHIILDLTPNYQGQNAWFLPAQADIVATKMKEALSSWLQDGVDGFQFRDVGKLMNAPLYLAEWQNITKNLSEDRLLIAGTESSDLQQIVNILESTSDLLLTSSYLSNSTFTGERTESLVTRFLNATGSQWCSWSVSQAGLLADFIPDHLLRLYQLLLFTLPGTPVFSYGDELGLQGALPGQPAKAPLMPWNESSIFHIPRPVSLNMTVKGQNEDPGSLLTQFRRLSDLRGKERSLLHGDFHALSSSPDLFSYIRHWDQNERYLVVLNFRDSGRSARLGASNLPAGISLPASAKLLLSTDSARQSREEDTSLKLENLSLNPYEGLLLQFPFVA

NC1(C(=O)O)CC2CCC1C2 (stereo not drawn) [BCH, 2-amino-2-norbornanecarboxylic acid]
effect on FICZ-induced Cyp1a1 mRNA ([1]; D3 TH17cond CD4+ T cells, FICZ 300 nM 2 h, BCH 25 mM): does not block FICZ mediated Cyp1a1 mRNA induction
effect on kynurenine-induced Cyp1a1 mRNA ([1]; D3 TH17cond CD4+ T cells, kynurenine 100 μM 2 h, BCH 25 mM): impedes Cyp1a1 mRNA induction in response to kynurenine
Percentage of kynurenine uptake blocked by BCH, Kyn MFI ([2]; 24 h CD3/CD28 stimulated T cells (TCR), 450 nm fluorescence emission): 77.1 ± 14.7%
effect on kynurenine uptake ([2]; CD3/CD28 activated wild-type T cells in co-culture, 5 mM lysine, BCH): BCH treatment did
IC50 ([2]; CTL, 4 min): 492 ± 45 µM
Percentage of kynurenine uptake blocked by BCH, Kyn MFI ([2]; CTL, 450 nm fluorescence emission): 78.3 ± 4.5%
IC50 ([2]; D7 rLM CD8+ effector T cells from spleen, ex vivo, 4 min): 161 ± 34 µM
effect on kynurenine transport ex vivo ([2]; D7 rLM-infected CD8+ T cells, BCH 10 mM, Leu 5 mM, Lys 5 mM): blocked
effect on kynurenine transport (450 nm fluorescence) ([2]; TCR-stimulated CD8+ T cells or CTLs, 4 min, BCH 10 mM, Leu 5 mM, Lys 5 mM): prevented
Percentage of kynurenine uptake blocked by BCH, Kyn MFI ([2]; TH1, 450 nm fluorescence emission): 81.0 ± 9.0%
kynurenine transport blocked as measured by flow cytometry [2, 5]: 80%
Percentage of kynurenine uptake blocked by BCH, 3H-Kyn ([3]; 24 h CD3/CD28 stimulated T cells (TCR), 4 min uptake): 79.1 ± 11.3%
Percentage of kynurenine uptake blocked by BCH, 3H-Kyn ([3]; CTL, 4 min uptake): 92.5 ± 0.9%
Percentage of kynurenine uptake blocked by BCH, 3H-Kyn ([3]; TH1, 4 min uptake): 90.2 ± 2.1%
effect on 3H-kynurenine transport ([3]; TH1 cells and CTLs, BCH 5 mM): inhibited
radiolabelled kynurenine uptake blocked [3, 5]: 80–90%

Nc1ccccc1C(=O)CC(N)C(=O)O (stereo not drawn) [kynurenine]
EC50 ([1]; D3 TH17cond CD4+ T cells, 2 h, read-out: EC50 to drive Cyp1A1 mRNA expression): 11.1 µM
Cyp1a1 mRNA induction, D3 versus D5 post activation ([1]; TH17cond CD4+ T cells, kynurenine 100 μM or FICZ 300 nM, 2 h): strikingly higher on day 3 post activation compared to day 5 cells
EC50 [4]: 13 µM
temperature dependence of kynurenine-mediated increase in MFI ([2]; CTLs, 4 min, 37 °C vs 4 °C): temperature sensitive
Km ([2]; IL-2 maintained CTLs, flow cytometry assay (MFI), read-out: Km for the initial rate of kynurenine transport): 267 µM
Km ([3]; CTLs, rounded value in Discussion, read-out: Km of kynurenine transport in CTLs): ~200 µM
Km ([3]; IL-2 maintained CTLs, radiolabelled kynurenine transport assay, read-out: Km for the initial rate of kynurenine transport): 213 µM
sodium dependence of uptake ([3]; TCR-activated CD4+ T cells, TH1s and CTLs, Na+ containing vs Na+-free buffer): sodium independent
